The values below come from US11267815B2, “Class of amino-substituted nitrogen-containing fused ring compounds, preparation method therefor, and use thereof” (SHANGHAI RINGENE BIOPHARMA CO., LTD., priority 2017, dated 2022).

One assay addresses FGFR1 (Homo sapiens (Human), UniProt P11362). The assay is described as follows: Inhibitory activity on kinase FGFR1 (Caliper mobility shift). As to conditions: read-out: FGFR1 IC50. Type of assay: biochemical. The protocol:
(§1) (1). Preparation of 1×Kinase buffer; (2) Preparation of the gradient concentrations of the compounds: the concentration of the compounds to be tested started from 10 μM, which was 3-fold diluted to prepare 10 dilutions, and then tested in duplicated wells. The compounds were 100-fold serially diluted into 10 dilutions with different final concentrations in 96-well plates, each of which was further diluted with 1×Kinase buffer to prepare an intermediate dilution having a concentration of 5 times the final concentration; (3) adding 5 μL of each of the prepared compound solution into the compound wells of 384-well plates, and each concentration set single well; adding 5 μL of 5% DMSO into negative control wells and positive control wells respectively; (4) preparing a kinase solution having a concentration of 2.5 times the final concentration with 1×kinase buffer; (5) adding 10 μL of kinase solution at a concentration of 2.5 times the final concentration into the compound wells and the positive control wells respectively; and adding 10 μL of 1×Kinase buffer into the negative control wells; (6) centrifuging at 1000 rpm for 30 seconds, and incubating at room temperature for 10 minutes after shaking and mixing evenly; (7) preparing a mixed solution of ATP and Kinase substrate 22 having a concentration of 2.5 times the final concentration with 1×Kinase Buffer; (8) adding 10 μL of the mixed solution of ATP and substrate at a concentration of 2.5 times the final concentration to initiate the reaction; (9) Centrifuging the 384-well plates at 1000 rpm for 30 seconds, and incubating at 28° C. for corresponding time respectively after shaking and mixing; (10) adding 30 μL of stop detection solution to stop the kinase reaction, centrifuging at 1000 rpm for 30 seconds, and shaking and mixing the mixture evenly; (11) reading the conversion rate by Caliper Ezreader II. The dose-effect curve was fitted by the log (inhibitor) vs. response-variable slope of GraphPad Prism 5 with the log value of concentration as the X axis and the percentage inhibition rate as the Y axis, then the IC50 value of each compound on the enzyme activity was obtained.

Another assay addresses FGFR4 (Homo sapiens (Human), UniProt P22455). The assay is described as follows: Inhibitory activity on kinase FGFR4 (Caliper mobility shift). Type of assay: biochemical. The settings on record: read-out: FGFR4 IC50. The protocol:
as §1

The test system of another assay is Hep3B cells. The assay is described as follows: Hep3B cell proliferation (CellTiter-Glo, 72 hours). Type of assay: cell-based. As to conditions: read-out: Hep3B IC50. Here is the method: 1. Test method: inoculating Hep3B cells (ATCC) in logarithmic growth phase at an appropriate density in a 96-well culture plate, with 100 μL per well. After overnight culture, different concentrations of compounds were added to stay for 72 hours, and menstruum control group (negative control) was set, and the incubation was performed under the condition of 5% CO2 at 37° C. Adding 10 mM compound stock solution to the cells, after the cells were incubated with the compounds for 72 hours, the effects of the compounds on cell proliferation were determined by CellTiter-Glo (Promega) method. 30 μL CTG reagent was added to each well and the resulting mixtures were placed in a 37° C. incubator for 2-4 hours. Then the plate was read by a full-wavelength microplate enzyme reader Envision at a […].
The inhibition rates (%) of the compounds on tumor cell growth were calculated by the following formula: inhibition rate (%)=(OD negative control well−OD administration well)/OD negative control well×100%. IC50 values were obtained by four parameters regression using Graphpad Prism 5 software.
On the technique in general: In ATP-based viability assays light output follows the ATP content of the culture.

SMILES strings stand for the structures. Where two headings read alike, the source gives them in different places.

FGFR1, sequence (P11362 22-822): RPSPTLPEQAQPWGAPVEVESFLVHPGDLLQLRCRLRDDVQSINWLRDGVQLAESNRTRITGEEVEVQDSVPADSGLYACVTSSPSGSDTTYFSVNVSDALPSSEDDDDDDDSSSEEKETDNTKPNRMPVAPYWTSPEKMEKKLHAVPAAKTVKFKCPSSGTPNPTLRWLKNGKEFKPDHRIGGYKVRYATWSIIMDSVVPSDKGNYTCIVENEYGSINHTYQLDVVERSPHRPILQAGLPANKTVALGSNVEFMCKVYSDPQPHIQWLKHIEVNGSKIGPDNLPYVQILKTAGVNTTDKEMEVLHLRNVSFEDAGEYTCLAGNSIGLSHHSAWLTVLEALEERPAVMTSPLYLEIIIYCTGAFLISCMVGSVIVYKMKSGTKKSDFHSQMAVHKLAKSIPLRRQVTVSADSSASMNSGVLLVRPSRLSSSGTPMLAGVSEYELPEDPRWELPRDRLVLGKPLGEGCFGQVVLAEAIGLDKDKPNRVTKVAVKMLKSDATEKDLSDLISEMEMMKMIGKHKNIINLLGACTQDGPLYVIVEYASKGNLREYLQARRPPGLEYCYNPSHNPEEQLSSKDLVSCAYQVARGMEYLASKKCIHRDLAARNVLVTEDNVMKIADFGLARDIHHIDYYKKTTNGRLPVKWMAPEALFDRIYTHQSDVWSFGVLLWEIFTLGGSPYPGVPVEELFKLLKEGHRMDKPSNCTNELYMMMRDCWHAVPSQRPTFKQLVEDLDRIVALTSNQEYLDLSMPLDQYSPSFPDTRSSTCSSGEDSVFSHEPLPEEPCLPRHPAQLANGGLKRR
FGFR4, sequence (P22455 22-802): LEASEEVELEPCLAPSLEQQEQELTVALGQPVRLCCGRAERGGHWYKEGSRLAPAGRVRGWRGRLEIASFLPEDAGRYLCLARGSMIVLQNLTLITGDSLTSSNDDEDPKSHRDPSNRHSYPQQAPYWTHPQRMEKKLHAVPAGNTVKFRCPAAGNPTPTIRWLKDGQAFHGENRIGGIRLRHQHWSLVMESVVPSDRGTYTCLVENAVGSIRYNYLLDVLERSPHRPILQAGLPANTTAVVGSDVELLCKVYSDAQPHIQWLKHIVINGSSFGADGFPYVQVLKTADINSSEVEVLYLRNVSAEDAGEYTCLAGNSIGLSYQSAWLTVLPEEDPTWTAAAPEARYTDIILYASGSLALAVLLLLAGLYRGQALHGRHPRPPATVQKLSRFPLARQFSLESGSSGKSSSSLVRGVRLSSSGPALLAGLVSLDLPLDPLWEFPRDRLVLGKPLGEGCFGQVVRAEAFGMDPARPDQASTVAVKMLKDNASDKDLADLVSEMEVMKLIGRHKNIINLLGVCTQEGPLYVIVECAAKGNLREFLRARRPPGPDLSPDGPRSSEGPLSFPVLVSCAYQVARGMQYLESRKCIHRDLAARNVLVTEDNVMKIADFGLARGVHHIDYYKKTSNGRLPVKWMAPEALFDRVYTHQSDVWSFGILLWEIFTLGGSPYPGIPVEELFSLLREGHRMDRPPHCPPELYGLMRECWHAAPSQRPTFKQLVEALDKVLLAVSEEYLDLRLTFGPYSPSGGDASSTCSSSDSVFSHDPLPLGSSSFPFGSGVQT

For the molecule `C=CC(=O)N1CCN(c2cccc(-c3cn4c(n3)c(-c3c(Cl)c(OC)cc(OC)c3Cl)cc3cnc(NC)nc34)c2)CC1` [Embodiment 18, 1-(4-(3-(6-(2,6-dichloro-3,5-dimethoxyphenyl)-2-(methylamine)imidazo[1′,2′:1,6]pyrido[2,3-d]pyrimidin-8-yl)phenyl)piperazine-1-yl)acrylamide], the results for the IC50 at FGFR1, at FGFR4 and with Hep3B cells were < 20 nM, > 200 nM and 20 to 200 nM, respectively.

Consider `C=CC(=O)N1CCN(Cc2cn3c(n2)c(-c2c(Cl)c(OC)cc(OC)c2Cl)cc2cnc(NC)nc23)CC1` [Embodiment 16, 1-(4-((6-(2,6-dichloro-3,5-phenyldimethoxyphenyl)-2-(methylamine)imidazo[1′,2′:1,6]pyrido[2,3-d]pyrimidin-8-yl)methyl)piperazine-1-yl)acrylamide], for which the IC50 (as a rule, the concentration at which inhibition is half-maximal) on FGFR1 is < 20 nM; at FGFR4, > 200 nM; in the assay with Hep3B cells (Homo sapiens, Hep3B), 20 to 200 nM.

Turning to `C=CC(=O)NCc1cccc(-c2cn3c(n2)c(-c2c(Cl)c(OC)cc(OC)c2Cl)cc2cnc(NC)nc23)c1` [Embodiment 19, N-(3-(6-(2,6-dichloro-3,5-dimethoxyphenyl)-2-(methylamino)imidazo[1′,2′:1,6]pyrido[2,3-d]pyrimidin-8-yl)benzyl)acrylamide], the IC50 was < 20 nM on FGFR1; > 200 nM at FGFR4; 20 to 200 nM in the assay on Hep3B cells (Homo sapiens, Hep3B).

For the molecule `C=CC(=O)N1CCN(CCCc2cn3c(n2)c(-c2c(Cl)c(OC)cc(OC)c2Cl)cc2cnc(NCC)nc23)CC1` [Embodiment 8], the IC50 on FGFR1 is < 20 nM; at FGFR4, < 20 nM; in the assay on Hep3B cells (Homo sapiens, Hep3B), < 20 nM.

Consider `C=CC(=O)N1CCN(CC(C)(C)Cc2cn3c(n2)c(-c2c(Cl)c(OC)cc(OC)c2Cl)cc2cnc(NC)nc23)CC1` [Embodiment 15, 1-(4-(3-(6-(2,6-dichloro-3,5-dimethoxyaniline)-2-(methylamine)imidazo[1′,2′:1,6]pyrido[2,3-d]pyrimidin-8-yl)-2,2-dimethylpropyl)piperazine-1-yl)prop-2-en-1-one], for which the IC50 was < 20 nM on FGFR1; 20 to 200 nM on FGFR4; 20 to 200 nM in the assay with Hep3B cells (Homo sapiens, Hep3B).

Take `C=CC(=O)N1CCN(CCCc2cn3c(n2)c(-c2c(Cl)c(OC)cc(OC)c2Cl)cc2cnc(NCC4CC4)nc23)CC1` [Embodiment 4]: the IC50 on FGFR1 is < 20 nM; at FGFR4, < 20 nM; in the assay with Hep3B cells (Homo sapiens, Hep3B) it was < 20 nM.

For `C=CC(=O)N1CCN(CCCc2cn3c(n2)c(-c2c(Cl)c(OC)cc(OC)c2Cl)cc2cnc(NCCC#N)nc23)CC1` [Embodiment 13], the IC50 on FGFR1 is < 20 nM; on FGFR4, < 20 nM; in the assay with Hep3B cells (Homo sapiens, Hep3B), 20 to 200 nM.

On to `C=CC(=O)N1CCN(CCCc2cn3c(n2)c(-c2c(Cl)c(OC)cc(OC)c2Cl)cc2cnc(NCC(C)(C)O)nc23)CC1` [Embodiment 12], for which the IC50 on FGFR1 is < 20 nM; at FGFR4, < 20 nM; in the assay with Hep3B cells (Homo sapiens, Hep3B), 20 to 200 nM.

For `C=CC(=O)N1CCN(CCCc2cn3c(n2)c(-c2c(Cl)c(OC)cc(OC)c2Cl)cc2cnc(NCC4CCOC4)nc23)CC1` (stereo not drawn) [Embodiment 11], the IC50 on FGFR1 is < 20 nM; at FGFR4, < 20 nM; with Hep3B cells (Homo sapiens, Hep3B), 20 to 200 nM.

For the molecule `C=CC(=O)N1CCN(CCCc2cn3c(n2)c(-c2c(Cl)c(OC)cc(OC)c2Cl)cc2cnc(NCCOC)nc23)CC1` [Embodiment 6, 1-(4-(3-(6-(2,6-dichloro-3,5-dimethoxyaniline)-2-((2-methoxyethyl)amino)imidazo[1′,2′:1,6]pyrido[2,3-d]pyrimidin-8-yl)propyl)piperazine-1-yl)prop-2-en-1-one], the IC50 on FGFR1 is < 20 nM; at FGFR4 it was < 20 nM; in the assay on Hep3B cells (Homo sapiens, Hep3B) it was < 20 nM.

With `C=CC(=O)N1CCN(CCCc2cn3c(n2)c(-c2c(Cl)c(OC)cc(OC)c2Cl)cc2cnc(NC)cc23)CC1` [Embodiment 5], the IC50 on FGFR1 is < 20 nM; at FGFR4, < 20 nM; in the assay on Hep3B cells (Homo sapiens, Hep3B), < 20 nM.

In the case of `C=CC(=O)N1CCN(CCCc2cn3c(n2)c(-c2c(Cl)c(OC)cc(OC)c2Cl)cc2cnc(NCCN(C)C)nc23)CC1` [Embodiment 9], the IC50 on FGFR1 is < 20 nM; at FGFR4, < 20 nM; in the assay with Hep3B cells (Homo sapiens, Hep3B), 20 to 200 nM.
